# Experimental data as given in ChEMBL document CHEMBL1201862, “PubChem BioAssay data set” (2004).
#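 Dose response: 5 concentrations. Exposure: 48 h. Format: 96-well plates. Endpoint: linear interpolation; highest concentration if not reached. GI50 is the concentration that inhibits growth by half.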 Calls of active or inactive are those of the source. Cut-off read from the data, not from the text of the source: active = GI50 up to about 1.1 µM and inactive = higher.
# Tests used:
# Test in all cases: NCI anticancer screen, dose series, 48 h
# OVCAR-8 = test system: OVCAR-8
# MCF7 = test system: MCF7
# OVCAR-3 = test system: OVCAR-3
# HCT-15 = test system: HCT-15
# OVCAR-4 = test system: OVCAR-4
# SK-MEL-28 = test system: SK-MEL-28
# SNB-19 = test system: SNB-19
# NCI/ADR-RES = test system: NCI/ADR-RES
# M19-MEL = test system: M19-MEL
# RXF 393 = test system: RXF 393
# LXFL 529 = test system: LXFL 529
# SF-539 = test system: SF-539
# Hs-578T = test system: Hs-578T
# OVCAR-5 = test system: OVCAR-5
# DLD-1 = test system: DLD-1
# SNB-78 = test system: SNB-78
# DU-145 = test system: DU-145
# BT-549 = test system: BT-549
# NCI-H522 = test system: NCI-H522
# SW-620 = test system: SW-620
# SK-MEL-2 = test system: SK-MEL-2
# HOP-62 = test system: HOP-62
# SNB-75 = test system: SNB-75
# RPMI-8226 = test system: RPMI-8226
# COLO 205 = test system: COLO 205
# NCI-H460 = test system: NCI-H460
# SR = test system: SR
# SK-MEL-5 = test system: SK-MEL-5
# T47D = test system: T47D
# HOP-92 = test system: HOP-92
# A498 = test system: A498
# EKVX = test system: EKVX
# SF-295 = test system: SF-295
# SN12C = test system: SN12C
# CAKI-1 = test system: CAKI-1
# NCI-H226 = test system: NCI-H226
# K562 = test system: K562
# UACC-62 = test system: UACC-62
# SK-OV-3 = test system: SK-OV-3
# MDA-MB-435 = test system: MDA-MB-435
# DMS-114 = test system: DMS-114
# MDA-MB-231 = test system: MDA-MB-231
# LOX IMVI = test system: LOX IMVI
# 786-0 = test system: 786-0
# NCI-H23 = test system: NCI-H23
# MDA-N = test system: MDA-N
# HT-29 = test system: HT-29
# UACC-257 = test system: UACC-257
# A549 = test system: A549
# TK-10 = test system: TK-10
# SF-268 = test system: SF-268
# M14 = test system: M14
# HOP-18 = test system: HOP-18
# U-251 = test system: U-251
# DMS-273 = test system: DMS-273
# KM-20L2 = test system: KM-20L2
# UO-31 = test system: UO-31
# HCC 2998 = test system: HCC 2998
# KM12 = test system: KM12
# HCT-116 = test system: HCT-116
# Malme-3M = test system: Malme-3M
# PC-3 = test system: PC-3
# IGROV-1 = test system: IGROV-1
# ACHN = test system: ACHN
# MOLT-4 = test system: MOLT-4
# XF498 = test system: XF498
# HL-60 = test system: HL-60
# CCRF-CEM = test system: CCRF-CEM
smiles,measurement,setting,value
O=C(O)CCC(O)=C1S(=O)(=O)OCCOS1(=O)=O,GI50,OVCAR-8,> 100 µM (inactive)
same,GI50,MCF7,> 100 µM (inactive)
same,GI50,OVCAR-3,> 100 µM (inactive)
same,GI50,HCT-15,> 100 µM
same,GI50,OVCAR-4,> 100 µM (inactive)
same,GI50,SK-MEL-28,> 100 µM (inactive)
same,GI50,SNB-19,> 100 µM (inactive)
same,GI50,NCI/ADR-RES,> 100 µM (inactive)
same,GI50,M19-MEL,> 100 µM (inactive)
same,GI50,RXF 393,> 100 µM (inactive)
same,GI50,LXFL 529,> 100 µM (inactive)
same,GI50,SF-539,> 100 µM (inactive)
same,GI50,Hs-578T,> 100 µM (inactive)
same,GI50,OVCAR-5,> 100 µM (inactive)
same,GI50,DLD-1,> 100 µM (inactive)
same,GI50,SNB-78,> 100 µM (inactive)
same,GI50,DU-145,> 100 µM (inactive)
same,GI50,BT-549,> 100 µM (inactive)
same,GI50,NCI-H522,> 100 µM (inactive)
same,GI50,SW-620,> 100 µM (inactive)
same,GI50,SK-MEL-2,> 100 µM (inactive)
same,GI50,HOP-62,> 100 µM (inactive)
same,GI50,SNB-75,> 100 µM (inactive)
same,GI50,RPMI-8226,> 100 µM (inactive)
same,GI50,COLO 205,> 100 µM (inactive)
same,GI50,NCI-H460,> 100 µM (inactive)
same,GI50,SR,43.7 µM (inactive)
same,GI50,SK-MEL-5,> 100 µM (inactive)
same,GI50,T47D,> 100 µM (inactive)
same,GI50,HOP-92,> 100 µM (inactive)
same,GI50,A498,> 100 µM (inactive)
same,GI50,EKVX,> 100 µM (inactive)
same,GI50,SF-295,> 100 µM (inactive)
same,GI50,SN12C,> 100 µM (inactive)
same,GI50,CAKI-1,> 100 µM (inactive)
same,GI50,NCI-H226,> 100 µM (inactive)
same,GI50,K562,> 100 µM (inactive)
same,GI50,UACC-62,> 100 µM (inactive)
same,GI50,SK-OV-3,> 100 µM (inactive)
same,GI50,MDA-MB-435,> 100 µM (inactive)
same,GI50,DMS-114,> 100 µM (inactive)
same,GI50,MDA-MB-231,> 100 µM (inactive)
same,GI50,LOX IMVI,> 100 µM (inactive)
same,GI50,786-0,> 100 µM (inactive)
same,GI50,NCI-H23,> 100 µM (inactive)
same,GI50,MDA-N,> 100 µM (inactive)
same,GI50,HT-29,> 100 µM (inactive)
same,GI50,UACC-257,> 100 µM (inactive)
same,GI50,A549,> 100 µM (inactive)
same,GI50,TK-10,> 100 µM (inactive)
same,GI50,SF-268,> 100 µM (inactive)
same,GI50,M14,> 100 µM (inactive)
same,GI50,HOP-18,> 100 µM (inactive)
same,GI50,U-251,> 100 µM (inactive)
same,GI50,DMS-273,> 100 µM (inactive)
same,GI50,KM-20L2,> 100 µM (inactive)
same,GI50,UO-31,> 100 µM (inactive)
same,GI50,HCC 2998,> 100 µM (inactive)
same,GI50,KM12,> 100 µM (inactive)
same,GI50,HCT-116,> 100 µM (inactive)
same,GI50,Malme-3M,> 100 µM (inactive)
same,GI50,PC-3,> 100 µM (inactive)
same,GI50,IGROV-1,> 100 µM (inactive)
same,GI50,ACHN,> 100 µM (inactive)
same,GI50,MOLT-4,> 100 µM (inactive)
O=C1C=C(c2c(O)ccc3ccccc23)c2cc(O)ccc2C1=O,GI50,OVCAR-8,11.4 µM (inactive)
same,GI50,OVCAR-3,10.7 µM (inactive)
same,GI50,HCT-15,16.7 µM
same,GI50,OVCAR-4,11.1 µM (inactive)
same,GI50,SK-MEL-28,20.7 µM (inactive)
same,GI50,SNB-19,17.5 µM (inactive)
same,GI50,M19-MEL,3.33 µM (inactive)
same,GI50,RXF 393,14.6 µM (inactive)
same,GI50,LXFL 529,6.4 µM (inactive)
same,GI50,SF-539,16.2 µM (inactive)
same,GI50,OVCAR-5,21.1 µM (inactive)
same,GI50,DLD-1,16.9 µM (inactive)
same,GI50,SNB-78,19.2 µM (inactive)
same,GI50,SW-620,18.2 µM (inactive)
same,GI50,SK-MEL-2,20.1 µM (inactive)
same,GI50,HOP-62,20 µM (inactive)
same,GI50,SNB-75,25.4 µM (inactive)
same,GI50,RPMI-8226,4.47 µM (inactive)
same,GI50,XF498,11.1 µM (inactive)
same,GI50,COLO 205,19.5 µM (inactive)
same,GI50,NCI-H460,20.3 µM (inactive)
same,GI50,SR,6.59 µM (inactive)
same,GI50,SK-MEL-5,15.1 µM (inactive)
same,GI50,HL-60,2.02 µM (inactive)
same,GI50,HOP-92,16.1 µM (inactive)
same,GI50,EKVX,21.2 µM (inactive)
same,GI50,SF-295,18.5 µM (inactive)
same,GI50,SN12C,18.2 µM (inactive)
same,GI50,CAKI-1,19.5 µM (inactive)
same,GI50,NCI-H226,20.9 µM (inactive)
same,GI50,K562,> 100 µM (inactive)
same,GI50,UACC-62,4.43 µM (inactive)
same,GI50,SK-OV-3,23.5 µM (inactive)
same,GI50,DMS-114,6.14 µM (inactive)
same,GI50,LOX IMVI,11.5 µM (inactive)
same,GI50,786-0,18.7 µM (inactive)
same,GI50,NCI-H23,15.1 µM (inactive)
same,GI50,HT-29,25.3 µM (inactive)
same,GI50,UACC-257,17.9 µM (inactive)
same,GI50,A549,18.2 µM (inactive)
same,GI50,TK-10,20.9 µM (inactive)
same,GI50,SF-268,16.3 µM (inactive)
same,GI50,M14,16.4 µM (inactive)
same,GI50,HOP-18,26.1 µM (inactive)
same,GI50,U-251,14.8 µM (inactive)
same,GI50,DMS-273,15.3 µM (inactive)
same,GI50,KM-20L2,20 µM (inactive)
same,GI50,UO-31,19.6 µM (inactive)
same,GI50,HCC 2998,18.6 µM (inactive)
same,GI50,KM12,16.1 µM (inactive)
same,GI50,HCT-116,16 µM (inactive)
same,GI50,Malme-3M,19.2 µM (inactive)
same,GI50,IGROV-1,13.7 µM (inactive)
same,GI50,ACHN,17.4 µM (inactive)
same,GI50,MOLT-4,3.09 µM (inactive)
Nc1n[nH]c(N)n1 [GUANAZOLE],GI50,OVCAR-8,3400 µM (inactive)
same,GI50,MCF7,3400 µM (inactive)
same,GI50,OVCAR-3,> 10000 µM (inactive)
same,GI50,HCT-15,7670 µM
same,GI50,OVCAR-4,> 9120 µM (inactive)
same,GI50,SK-MEL-28,> 6150 µM (inactive)
same,GI50,SNB-19,9980 µM (inactive)
same,GI50,NCI/ADR-RES,2580 µM (inactive)
same,GI50,M19-MEL,> 10000 µM (inactive)
same,GI50,RXF 393,6820 µM (inactive)
same,GI50,SF-539,2510 µM (inactive)
same,GI50,Hs-578T,> 10000 µM (inactive)
same,GI50,OVCAR-5,4980 µM (inactive)
same,GI50,DLD-1,9840 µM (inactive)
same,GI50,SNB-78,5250 µM (inactive)
same,GI50,DU-145,5130 µM (inactive)
same,GI50,BT-549,> 6490 µM (inactive)
same,GI50,NCI-H522,2680 µM (inactive)
same,GI50,SW-620,> 9380 µM (inactive)
same,GI50,SK-MEL-2,> 9790 µM (inactive)
same,GI50,HOP-62,2360 µM (inactive)
same,GI50,SNB-75,9250 µM (inactive)
same,GI50,RPMI-8226,4670 µM (inactive)
same,GI50,CCRF-CEM,1720 µM (inactive)
same,GI50,XF498,237 µM (inactive)
same,GI50,COLO 205,> 8990 µM (inactive)
same,GI50,NCI-H460,3270 µM (inactive)
same,GI50,SR,3300 µM (inactive)
same,GI50,SK-MEL-5,3940 µM (inactive)
same,GI50,T47D,> 9160 µM (inactive)
same,GI50,HL-60,1420 µM (inactive)
same,GI50,HOP-92,5190 µM (inactive)
same,GI50,A498,5470 µM (inactive)
same,GI50,EKVX,7350 µM (inactive)
same,GI50,SF-295,2360 µM (inactive)
same,GI50,SN12C,4930 µM (inactive)
same,GI50,CAKI-1,3550 µM (inactive)
same,GI50,NCI-H226,5860 µM (inactive)
same,GI50,K562,7110 µM (inactive)
same,GI50,UACC-62,2620 µM (inactive)
same,GI50,SK-OV-3,3210 µM (inactive)
same,GI50,MDA-MB-435,> 9750 µM (inactive)
same,GI50,DMS-114,1800 µM (inactive)
same,GI50,MDA-MB-231,> 10000 µM (inactive)
same,GI50,LOX IMVI,2960 µM (inactive)
same,GI50,786-0,2580 µM (inactive)
same,GI50,NCI-H23,5300 µM (inactive)
same,GI50,MDA-N,8570 µM (inactive)
same,GI50,HT-29,5060 µM (inactive)
same,GI50,UACC-257,6430 µM (inactive)
same,GI50,A549,4420 µM (inactive)
same,GI50,TK-10,> 10000 µM (inactive)
same,GI50,SF-268,5740 µM (inactive)
same,GI50,M14,3310 µM (inactive)
same,GI50,HOP-18,5610 µM (inactive)
same,GI50,U-251,3800 µM (inactive)
same,GI50,DMS-273,914 µM (inactive)
same,GI50,KM-20L2,7890 µM (inactive)
same,GI50,UO-31,7030 µM (inactive)
same,GI50,HCC 2998,6900 µM (inactive)
same,GI50,KM12,8890 µM (inactive)
same,GI50,HCT-116,5980 µM (inactive)
same,GI50,Malme-3M,9100 µM (inactive)
same,GI50,PC-3,8510 µM (inactive)
same,GI50,IGROV-1,7000 µM (inactive)
same,GI50,ACHN,1890 µM (inactive)
same,GI50,MOLT-4,3170 µM (inactive)
